This assay has as its target PD-1/PD-L1 (Homo sapiens (Human), UniProt Q9NZQ7). The experiment in a line: PD-1/PD-L1 biochemical protein-protein interaction assay (ALPHA). The settings on record: 0.3 nM His tagged PD-L1, 2.5 nM biotinylated Fc-PD-1, 60 minutes at 25° C., read-out: IC50 PD-L1-PD1.

pIC50: −log10 of the molar value.

Sequence of PD-1/PD-L1 (Q9NZQ7 19-238): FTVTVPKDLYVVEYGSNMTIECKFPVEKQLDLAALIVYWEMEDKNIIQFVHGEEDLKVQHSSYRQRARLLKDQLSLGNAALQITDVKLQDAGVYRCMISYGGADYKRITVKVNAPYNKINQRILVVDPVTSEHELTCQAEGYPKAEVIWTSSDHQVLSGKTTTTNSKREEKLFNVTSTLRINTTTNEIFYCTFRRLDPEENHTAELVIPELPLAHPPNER

By pIC50 is commonly meant the IC50 on a negative log10 scale, so that one unit is a factor of ten. As to `COc1nc(-c2cccc(-c3cccc(-c4cnc(CN5CC[C@](C)(O)C5)c(OC)n4)c3Cl)c2Cl)cnc1CNC[C@@H]1CCC(=O)N1` [compound 510], the negative-log IC50 (pIC50) was 9.72. On to `COc1nc(-c2cccc(-c3cccc(-c4cnc(CN[C@H]5C[C@H](CO)C5)c(OC)n4)c3Cl)c2Cl)cnc1CNC[C@@H]1CCC(=O)N1` [compound 511], for which the pIC50 was 9.71. For `COc1nc(-c2cccc(-c3cccc(-c4cnc(CNCCC(=O)O)c(OC)n4)c3Cl)c2Cl)ccc1CNC[C@@H]1CCC(=O)N1` [compound 512], the pIC50 was 10.00. As to `COc1nc(-c2cccc(-c3cccc(-c4cnc(CN5CC[C@H](C(=O)O)C5)c(OC)n4)c3Cl)c2Cl)ccc1CNC[C@@H]1CCC(=O)N1` [compound 513], the pIC50 is 10.19. Take `COc1nc(-c2cccc(-c3cccc(-c4cnc(CN5CC[C@@H](C(=O)O)C5)c(OC)n4)c3Cl)c2Cl)ccc1CNC[C@@H]1CCC(=O)N1` [compound 514]: the pIC50 is 10.05. With `COc1nc(-c2cccc(-c3cccc(-c4cnc(CN5CCC(c6cc[nH]n6)C5)c(OC)n4)c3Cl)c2Cl)cnc1CNC[C@@H]1CCC(=O)N1` (stereo partly drawn) [compound 515] the figure was 9.47; with `COc1nc(-c2cccc(-c3cccc(-c4cnc(CN5CC[C@H](O)[C@@H]5C)c(OC)n4)c3Cl)c2Cl)cnc1CNC[C@@H]1CCC(=O)N1` [compound 516], 10.19; with `COc1nc(-c2cccc(-c3cccc(-c4cnc(CN5CC[C@H](C(N)=O)C5)c(OC)n4)c3Cl)c2Cl)cnc1CNC[C@@H]1CCC(=O)N1` [compound 517], 9.97.

As for `COc1nc(-c2cccc(-c3cccc(-c4cnc(CNCCc5cnccn5)c(OC)n4)c3Cl)c2Cl)cnc1CNCCc1cnccn1` [compound 518], the pIC50 was 9.84. With `COc1nc(-c2cccc(-c3cccc(-c4cnc(CN5C[C@@H](O)[C@@H](O)C5)c(OC)n4)c3Cl)c2Cl)cnc1CN1C[C@@H](O)[C@@H](O)C1` [compound 519] the figure was 9.56.

Take `COc1nc(-c2cccc(-c3cccc(-c4cnc(CNC[C@@H]5CCC(=O)N5)c(OC)n4)c3Cl)c2Cl)cnc1CNCCc1cncnc1` [compound 520]: the pIC50 was 10.14. As to `COc1nc(-c2cccc(-c3cccc(-c4cnc(CNC[C@@H]5CCC(=O)N5)c(OC)n4)c3Cl)c2Cl)cnc1CNCCc1cnccn1` [compound 521], the pIC50 is 10.15. `COc1nc(-c2cccc(-c3cccc(-c4cnc(CN(CCO)CCO)c(OC)n4)c3Cl)c2Cl)cnc1CNC[C@@H]1CCC(=O)N1` [compound 522]: the pIC50 is 10.19. For the compound `COc1nc(-c2cccc(-c3cccc(-c4cnc(CN5CCC(O)(CO)C5)c(OC)n4)c3Cl)c2Cl)cnc1CNC[C@@H]1CCC(=O)N1` (stereo partly drawn) [compound 523], the pIC50 is 9.74.

For `COc1nc(-c2cccc(-c3cccc(-c4cnc(CN5C[C@@H](O)[C@@H](O)C5)c(OC)n4)c3Cl)c2Cl)cnc1CNC[C@@H]1CCC(=O)N1` [compound 524], the pIC50 is 9.94. Turning to `COc1nc(-c2cccc(-c3cccc(-c4cnc(CN5CCC(N6CCNC6=O)C5)c(OC)n4)c3Cl)c2Cl)cnc1CN1CCC(N2CCNC2=O)C1` (stereo not drawn) [compound 525], the pIC50 is 9.98. As for `COc1nc(-c2cccc(-c3cccc(-c4cnc(CN5C[C@H](O)[C@@H](O)C5)c(OC)n4)c3Cl)c2Cl)cnc1CN1C[C@H](O)[C@@H](O)C1` [compound 526], the pIC50 is 9.77. On to `COc1nc(-c2cccc(-c3cccc(-c4cnc(CN5CC(C(N)=O)C5)c(OC)n4)c3Cl)c2Cl)cnc1CN1CC(C(N)=O)C1` [compound 527], for which the negative logarithm of the IC50 (pIC50) is 10.05. Consider `COc1nc(-c2cccc(-c3cccc(-c4cnc(CN5CCC(N6CCNC6=O)C5)c(OC)n4)c3Cl)c2Cl)cnc1CNC[C@@H]1CCC(=O)N1` (stereo partly drawn) [compound 528], for which the negative logarithm of the IC50 (pIC50) is 10.19. For the compound `COc1nc(-c2cccc(-c3cccc(-c4cnc(CN5C[C@H](O)[C@@H](O)C5)c(OC)n4)c3Cl)c2Cl)cnc1CNC[C@@H]1CCC(=O)N1` [compound 529], the pIC50 is 10.04. For the compound `COC[C@@H]1C[C@H](OC)CN1Cc1ncc(-c2cccc(-c3cccc(-c4cnc(CNC[C@@H]5CCC(=O)N5)c(OC)n4)c3Cl)c2Cl)nc1OC` [compound 530], the pIC50 is 9.67. As to `COc1nc(-c2cccc(-c3cccc(-c4cnc(CN5CCC(C(=O)N(C)C)C5)c(OC)n4)c3Cl)c2Cl)cnc1CN1CCC(C(=O)N(C)C)C1` (stereo not drawn) [compound 531], the pIC50 was 9.65. For the compound `COc1nc(-c2cccc(-c3cccc(-c4cnc(CN5CC[C@@H](C(N)=O)C5)c(OC)n4)c3Cl)c2Cl)cnc1CN1CC[C@@H](C(N)=O)C1` [compound 532], the pIC50 is 9.56.

Consider `COc1nc(-c2cccc(-c3cccc(-c4cnc(CN5C[C@@H](CO)[C@H](C)C5)c(OC)n4)c3Cl)c2Cl)cnc1CN1C[C@@H](CO)[C@H](C)C1` [compound 533], for which the pIC50 was 10.02. Consider `COc1nc(-c2cccc(-c3cccc(-c4cnc(CN5CCC(C(=O)N(C)C)C5)c(OC)n4)c3Cl)c2Cl)cnc1CNC[C@@H]1CCC(=O)N1` (stereo partly drawn) [compound 534], for which the pIC50 was 9.52. Consider `COc1nc(-c2cccc(-c3cccc(-c4cnc(CN5CC[C@@H](C(N)=O)C5)c(OC)n4)c3Cl)c2Cl)cnc1CNC[C@@H]1CCC(=O)N1` [compound 535], for which the pIC50 is 10.02. For `COc1nc(-c2cccc(-c3cccc(-c4cnc(CN[C@H]5C[C@@H](OC(F)F)C5)c(OC)n4)c3Cl)c2Cl)cnc1CNC[C@@H]1CCC(=O)N1` [compound 536], the pIC50 was 9.56.

Regarding `COc1nc(-c2cccc(-c3cccc(-c4cnc(CN5CCC6(CCC(=O)N6)C5)c(OC)n4)c3Cl)c2Cl)cnc1CN1CCC2(CCC(=O)N2)C1` (stereo not drawn) [compound 537], the pIC50 is 10.19. As to `COc1nc(-c2cccc(-c3cccc(-c4cnc(CNCC[C@@H]5CNC(=O)C5)c(OC)n4)c3Cl)c2Cl)cnc1CNCC[C@@H]1CNC(=O)C1` [compound 538], the pIC50 was 9.70. As for `COc1nc(-c2cccc(-c3cccc(-c4cnc(CNC[C@@H]5CCC(=O)N5)c(OC)n4)c3Cl)c2Cl)cnc1CNCC[C@@H]1CNC(=O)C1` [compound 539], the pIC50 is 9.77.

For the compound `COc1nc(-c2cccc(-c3cccc(-c4cnc(CNCC[C@H]5CNC(=O)C5)c(OC)n4)c3Cl)c2Cl)cnc1CNCC[C@H]1CNC(=O)C1` [compound 540], the pIC50 is 10.14. As for `COc1nc(-c2cccc(-c3cccc(-c4cnc(CNC[C@@H]5CCC(=O)N5)c(OC)n4)c3Cl)c2Cl)cnc1CNCC[C@H]1CNC(=O)C1` [compound 541], the pIC50 is 10.03. With `COc1nc(-c2cccc(-c3cccc(-c4cnc(CN5CCC[C@@H]6C(=O)NC[C@@H]65)c(OC)n4)c3Cl)c2Cl)cnc1CNC[C@@H]1CCC(=O)N1` [compound 542] the figure was 9.41.

As to `COc1nc(-c2cccc(-c3cccc(-c4cnc(CNC[C@@H]5CCC(=O)N5)c(OC)n4)c3Cl)c2Cl)cnc1CNCC1CCN(C)C1=O` (stereo partly drawn) [compound 543], the pIC50 is 9.70. For `COc1nc(-c2cccc(-c3cccc(-c4cnc(CNCC56CC(O)(C5)C6)c(OC)n4)c3Cl)c2Cl)cnc1CNCC12CC(O)(C1)C2` [compound 544], the negative logarithm of the IC50 (pIC50) is 9.62.

`COc1nc(-c2cccc(-c3cccc(-c4cnc(CNCC56CC(O)(C5)C6)c(OC)n4)c3Cl)c2Cl)cnc1CNC[C@@H]1CCC(=O)N1` [compound 545]: the pIC50 was 9.67. Consider `COc1nc(-c2cccc(-c3cccc(-c4cnc(CNCC5CN(S(C)(=O)=O)C5)c(OC)n4)c3Cl)c2Cl)cnc1CNCC1CN(S(C)(=O)=O)C1` [compound 546], for which the pIC50 was 10.05. With `COc1nc(-c2cccc(-c3cccc(-c4cnc(CNC[C@@H]5CCC(=O)N5)c(OC)n4)c3Cl)c2Cl)cnc1CNCC1CN(S(C)(=O)=O)C1` [compound 547] the figure was 10.19; with `COc1nc(-c2cccc(-c3cccc(-c4cnc(CN5CC(O)(C6CC6)C5)c(OC)n4)c3Cl)c2Cl)cnc1CN1CC(O)(C2CC2)C1` [compound 548], 9.18; with `COc1nc(-c2cccc(-c3cccc(-c4cnc(CN5CC(O)(C6CC6)C5)c(OC)n4)c3Cl)c2Cl)cnc1CNC[C@@H]1CCC(=O)N1` [compound 549], 9.71. On to `C#CC1(O)CN(Cc2ncc(-c3cccc(-c4cccc(-c5cnc(CN6CC(O)(C#C)C6)c(OC)n5)c4Cl)c3Cl)nc2OC)C1` [compound 550], for which the pIC50 was 9.23. With `C#CC1(O)CN(Cc2ncc(-c3cccc(-c4cccc(-c5cnc(CNC[C@@H]6CCC(=O)N6)c(OC)n5)c4Cl)c3Cl)nc2OC)C1` [compound 551] the figure was 9.33; with `COc1nc(-c2cccc(-c3cccc(-c4cnc(CN5CC[C@@H](C(=O)O)C5)c(OC)n4)c3Cl)c2Cl)cnc1CNC[C@@H]1CCC(=O)N1` [compound 552], 9.84; with `COc1nc(-c2cccc(-c3cccc(-c4cnc(CN[C@@](C)(CO)C(=O)O)c(OC)n4)c3Cl)c2Cl)cnc1CNC[C@@H]1CCC(=O)N1` [compound 553], 9.93. Consider `CNC(=O)NC1CN(Cc2ncc(-c3cccc(-c4cccc(-c5cnc(CN6CC(NC(=O)NC)C6)c(OC)n5)c4Cl)c3Cl)nc2OC)C1` [compound 554], for which the pIC50 is 10.00. For the compound `CNC(=O)C1CN(Cc2ncc(-c3cccc(-c4cccc(-c5cnc(CN6CC(C(=O)NC)C6)c(OC)n5)c4Cl)c3Cl)nc2OC)C1` [compound 555], the pIC50 is 9.46.

In the case of `COc1nc(-c2cccc(-c3cccc(-c4cnc(CN5CC(NS(C)(=O)=O)C5)c(OC)n4)c3Cl)c2Cl)cnc1CN1CC(NS(C)(=O)=O)C1` [compound 556], the pIC50 was 9.75. Take `CNC(=O)NC1CN(Cc2ncc(-c3cccc(-c4cccc(-c5cnc(CNC[C@@H]6CCC(=O)N6)c(OC)n5)c4Cl)c3Cl)nc2OC)C1` [compound 557]: the pIC50 is 10.05. With `CNC(=O)C1CN(Cc2ncc(-c3cccc(-c4cccc(-c5cnc(CNC[C@@H]6CCC(=O)N6)c(OC)n5)c4Cl)c3Cl)nc2OC)C1` [compound 558] the figure was 10.19.

With `COc1nc(-c2cccc(-c3cccc(-c4cnc(CN5CC(NS(C)(=O)=O)C5)c(OC)n4)c3Cl)c2Cl)cnc1CNC[C@@H]1CCC(=O)N1` [compound 559], the pIC50 is 9.92. For the compound `COc1nc(-c2cccc(-c3cccc(-c4cnc(CNC5CS(=O)(=O)C5)c(OC)n4)c3Cl)c2Cl)cnc1CNC[C@@H]1CCC(=O)N1` [compound 560], the pIC50 is 9.84.
